Where two headings read alike, the source gives them in different places. Marks after values point to notes of the source that are not given here.
Assays:
Type in all cases: cell-based, human
[1] = test system: U87 MG/PER2-dLuc cells; assay: cells; settings: 72 h treatment
Protocol: U87 MG/PER2-dLuc cells were subjected to the 3-(4, 5-dimethylthiazol-2-yl)-2, 5-diphenyl tetrazolium bromide (MTT) (M2128; Sigma-Aldrich) assay. […] Briefly, U87 MG/PER2-dLuc cells were seeded in 96-well plates at a density of 10^5 cells/mL, incubated for 48 h, and treated with relevant chemicals at various concentrations for 72 h. Subsequently, the media with chemicals were decanted and 20μl of MTT reagent solution (5 mg/ml) with 80μl of the media was added to all wells the plates and were incubated for 2 h until the formation of formazan crystals. The reagent solution was decanted, and 100μl of DMSO (D8418; Sigma-Aldrich) was added. Absorbance was measured at 570 nm using a spectrophotometer (Molecular Devices). The values of triplicate same-treatment wells were averaged.

[2] = test system: U87 MG/PER2-dLuc cells; assay: in vitro cellular bioluminescence (PER2-dLuc circadian reporter) assay; settings: for concentration that disrupted the cellular circadian rhythm / concentration with no disruptive effect on cellular circadian rhythm: Fig. 3; for LOAEL Circadian disruption: U87 MG/PER2-dLuc cells, bioluminescence monitored 5 days; for effect on cellular circadian rhythm: at disrupting concentration: MPP + ≥ 30 µM, DDT 10 µM, PMX ≥ 30 µM, CPX ≥ 40 µM, CPF 1.5 µM
Protocol: U-87 MG (ATCC® HTB-14™) is a well-recognized human glioblastoma cell line widely used in the field of neuroscience. U87 MG cells have a regular and strong cellular circadian rhythm after transfection with a circadian gene (i.e., BMAL1) reporter vector (Jung et al. [2013]; Slat et al. [2017]). As described in our previous report (Fang et al. [2015], [2017]), U87 MG cells were transfected with a circadian reporter vector pGL [PER2P (Luc2P/Neo)] expressing destabilized firefly luciferase driven by the human PER2 promoter using FuGene HD™ transfection reagent (LightSwitch Genomics), and stably transfected cells were selected and cultured with 1000 μg/mL G418 (Invitrogen). The stably transfected cells were used to examine the cellular circadian rhythm using an in vitro cellular bioluminescence assay. U87 MG/PER2P-dLuc cells were cultured in Eagle’s minimum essential medium (EMEM) (11430030; Gibco) supplemented with 5% fetal bovine serum (FBS) (26140079; Gibco) and 1% penicillin/streptomycin (15140122; Gibco) at 37 °C in an atmosphere of 95% humidity and 5% CO2.
(§1) Briefly, cultured U87 MG/PER2 -dLuc cells were seeded in 35-mm dishes at 3 × 10^5 cells/dish and incubated until 70–80% confluency was reached. The cells were FBS-starved for three days at 70% confluency and then synchronized with 50% horse serum (16050122; Gibco) (Balsalobre et al. [1998]). After decanting and washing, recording medium (EMEM with 20% of growing medium containing 5% FBS, 6.5 mM sodium bicarbonate, 10 mM HEPES buffer [pH 7.2], 0.1 mM luciferin [E1602; Promega], and 50 U/mL penicillin and 50 µg/mL streptomycin) was added. Subsequently, the cells were treated with each compound. The 35-mm dishes were sealed with a sterile glass cover slide using silicon grease and subjected to continuous monitoring with a LumiCycle 32™ (Actimetrics) for 5 days. The analytical method was optimized according to the instruction manual of the LumiCycle Analysis Software (Actimetrics). Using this software, data were detrended (running average), and best fits to a sine wave were estimated using the Levenberg–Marquardt algorithm for period, phase, amplitude, and damping rate measurements, as previously reported (Chen et al. [2012]; Fang et al. [2015], [2017]).

[3] = test system: U87 MG/PER2-dLuc cells; assay: multiparametric high-content screening (HCS) assay; settings: for LOAEL CA (calcium ion): Fluo-4 AM; for LOAEL MMP (mitochondrial membrane potential): TMRM; for lowest concentration with decrease in MMP / concentrations that decreased nuclear size: 24 h of treatment; for LOAEL LP (lipid peroxidation): BODIPY 665/676; for LOAEL NC (nuclear size): Hoechst 33342; for concentrations that decreased nuclear size: p < 0.01, text; for concentrations with increased lipid peroxidation / concentrations that changed nuclear size: 72 h of treatment; for concentrations that changed nuclear size: MHg biphasic changes, MPP + reduction
Protocol: A multiparametric analysis of compound toxicity at the level of individual cells was conducted using the HCS method established by Tolosa et al. ([2012]) to assess the liver toxicity of chemicals and drugs. Briefly, U87 MG/PER2-dLuc cells were seeded in 96-well plates specific for HCS at a density of 10^4 cells/well. […] Following these treatments, cells were treated with a mixture of Hoechst 33342 (Hoechst) (B2261; Sigma-Alrich) at 1.5 µg/mL to assess the nuclear size (NC), 75 ng/mL tetramethyl rhodamine methyl ester (TMRM) (T-668; Molecular Probes) as a mitochondrial membrane potential (MMP) sensor, 0.24 µM fluo-4 acetoxymethyl ester (Fluo-4 AM) (F14217; Molecular Probes) to detect intracellular calcium ions (Ca^2+), and 1.5 µg/mL of (E,E)-3,5-bis-(4-phenyl-1,3-butadienyl)-4,4-difluoro-4-bora-3a,4a-diaza-s-indacene (BODIPY 665/676) (b-3932; Molecular Probes) to evaluate lipid peroxidation. After incubation for 1 h, the cells were imaged using an IN Cell Analyzer 6000 (GE Healthcare Life Sciences) and analyzed using IN Cell Miner HCM. The data were analyzed with IN Cell Analyzer 6000 Analysis Software. Nuclear morphological alterations were assessed based on the Hoechst staining. The nucleus was defined as the main object detected using an edge detection algorithm. To separate individual cells, segmentation was applied. All measurements were restricted to live cells. Lipid peroxidation was detected based on BODIPY fluorescence intensity in the cytoplasm. The cellular MMP was defined as the TMRM fluorescence intensity in punctate cytosolic regions surrounding the nucleus. Fluo-4 intensity was used to measure changes in the cytosolic-free Ca^2+ concentration. An intensity algorithm with a fixed threshold was used to measure TMRM, Fluo-4, and BODIPY fluorescence. Each measurement was performed in individual cells. The values of triplicate same-treatment wells were averaged and normalized to the average value of vehicle control (0.1% DMSO-treated or naïve cells).
The values of triplicate same-treatment wells were averaged and normalized to the average value of the negative control group, and differences in parameters between concentrations were analyzed using one-way ANOVA followed by Duncan’s tests. A p-value < 0.05 was considered significant.

[4] = test system: U87 MG/PER2-dLuc cells; assay: cellular circadian rhythm assay with neurotoxicants in the presence of antioxidants; settings: for restoration of circadian rhythm disrupted by CPF: 1.5 µM CPF, 20 µM NAC, 12.5 µM (or 25 µM) MSC; for effect on circadian rhythm disrupted by MHg: 2.0 µM MHg, co-treatment with NAC and MSC; for restoration of cellular rhythm disrupted by DDT: 10 µM DDT, co-treatment with NAC (10 or 20 µM) or MSC (12.5 or 25 µM); for restoration of MPP + -disrupted rhythmicity: MPP + at LOAEL, restored rhythm not similar to that of control cells
Protocol: as §1
The cellular circadian rhythm was recorded as described above.

[5] = Homo sapiens, U-87 MG, no unit with values, axis Concentration[μM], read-out: IC50 (cell viability, MTT; Fig. 1)
[6] = Homo sapiens, U-87 MG, read-out: IC50 (MTT, Table 1)

Row | Molecule | IC15 (MTT, Table 1) [1] [µM] | concentration that disrupted the cellular circadian rhythm [2] [µM] | LOAEL Circadian disruption [2] [µM] | effect on cellular circadian rhythm [2] | LOAEL CA (calcium ion) ([3]; 24-h treatment) | LOAEL MMP (mitochondrial membrane potential) ([3]; 24-h treatment) | LOAEL CA (calcium ion) ([3]; 72-h treatment) | lowest concentration with decrease in MMP [3] [µM] | IC50 ([1]; read-out: IC50 (MTT, Table 1)) [µM] | concentration that increased intracellular Ca2+ levels ([3]; 72-h timepoint) | LOAEL LP (lipid peroxidation) ([3]; 72-h treatment) | concentrations with increased lipid peroxidation [3] | other results
1 | CCOP(=S)(OCC)Oc1nc(Cl)c(Cl)cc1Cl [CPF, chlorpyrifos] | 13.9 | 1.5 | 1.5 | abolished the cellular circadian rhythm | 1.41** µM | 1.41** µM | 0.7** µM | 1.41 | – | – | – | – | IC50 [1, 5]: 43.7 µM; IC50 [1, 6]: 60 µM; concentrations that increased the intracellular Ca2+ level ([3]; both the 24- and 72-h timepoints): 0.7 to 45 µM
2 | [CH3][Hg][Cl] [MHg, methylmercury (II) chloride] | 2.5 | 2.0 | – | – | – | 0.5* µM | 0.031** µM | 0.5 | 3.9 | above 0.03 µM | 0.031** µM | above 0.031 µM | IC50 ([1]; read-out: IC50 (cell viability, MTT)): 3.97 µM; LOAEL LP (lipid peroxidation) ([3]; 24-h treatment): 8** µM; LOAEL NC (nuclear size) ([3]; 24-h treatment): 4** µM; LOAEL NC (nuclear size) ([3]; 72-h treatment): 4** µM; concentration that significantly reduced lipid peroxidation levels ([3]; 24 h after treatment): 8.0 µM; concentrations that decreased nuclear size [3]: 4 to 8 µM; concentrations that changed nuclear size [3]: 2 to 8 µM
3 | O=C(O)c1cn(C2CC2)c2cc(N3CCNCC3)c(F)cc2c1=O [CPX, ciprofloxacin] | 19.8 | ≥ 40 | 40 | increased the circadian rhythm | – | 0.94** µM | 0.94** µM | 0.94 | – | > 0.94 µM | 0.94** µM | > 0.94 µM | IC50 [1, 5]: 98.3 µM; IC50 [1, 6]: 98 µM; IC50 ([1]; Homo sapiens, U-87 MG, read-out: IC50 (cell viability, MTT)): 98.3 µM
4 | CC(=O)N[C@@H](CS)C(=O)O [NAC, N-acetyl-L-cysteine] | – | – | – | – | – | – | – | – | – | – | – | – | restoration of circadian rhythm disrupted by CPF [4]: restored the circadian rhythm; effect on circadian rhythm disrupted by MHg [4]: reduced the first high-altitude peak; restoration of cellular rhythm disrupted by DDT [4]: restored the cellular rhythm; restoration of MPP + -disrupted rhythmicity [4]: restore the cellular circadian rhythm to a certain extent
5 | Clc1ccc(C(c2ccc(Cl)cc2)C(Cl)(Cl)Cl)cc1 [DDT, 4,4′-dichlorodiphenyltrichloroethane] | 18.3 | 10 | 10 | robust rhythm was gradually abolished | 30** µM | 15 µM | 0.47** µM | 15 | 60 | > 0.47 µM | – | – | LOAEL NC (nuclear size) ([3]; 24-h treatment): 120** µM; concentrations that decreased nuclear size [3]: 120 µM
6 | polymyxin B [PMX] | 49 | ≥ 30 | 30 | advanced phase and decreased amplitude | – | 3.91* µM | 3.91** µM | 3.91 | 51 | – | – | – | concentration with no disruptive effect on cellular circadian rhythm [2]: 15 µM
7 | C[Se]C[C@H](N)C(=O)O [MSC, methylselenocysteine] | – | – | – | – | – | – | – | – | – | – | – | – | restoration of circadian rhythm disrupted by CPF [4]: restored the circadian rhythm; effect on circadian rhythm disrupted by MHg [4]: reduced the first high-altitude peak; restoration of cellular rhythm disrupted by DDT [4]: restored the cellular rhythm; restoration of MPP + -disrupted rhythmicity [4]: restore the cellular circadian rhythm to a certain extent
8 | C[n+]1ccc(-c2ccccc2)cc1 [MPP +, 1-methyl-4-phenylpyridinium] | 68.4 | ≥ 30 | 30 | advanced phase and decreased amplitude | 40 µM | 40* µM | 0.63 µM | 40 | 93 | 0.63 µM | 160 µM | > 160 µM | concentration with no disruptive effect on cellular circadian rhythm [2]: 10 µM; concentration that increased intracellular Ca2+ levels ([3]; 24-h timepoint): 40 µM; LOAEL NC (nuclear size) ([3]; 72-h treatment): 80 µM; concentrations that changed nuclear size [3]: 80 to 120 µM

From publication PMC10965668, “Combined use of multiparametric high-content-screening and in vitro circadian reporter assays in neurotoxicity evaluation” (Archives of Toxicology, 2024)
